Assay results published in US20080255206A1, “Rxr Agonists and Antagonists, Alone or in Combination with Ppar Ligands, in the Treatment of Metabolic and Cardiovascular Diseases” (priority 2005, published 2008).
Like-named read-outs stand apart in the source and are kept apart here.

What was measured:
[1] = tested on: NMRI mice; experiment: 2 weeks toxicology study in NMRI mice; format: in vivo
Protocol: Oral administration of the RXR agonist compound 1 is tested by daily oral gavage in a 2 weeks toxicology study in NMRI mice. […] This signifies a favourable effect on the lipid profile, which is important in therapy of diabetes and lipid disorders.

[2] = tested on: rats; experiment: 4-weeks toxicology study in rats, oral gavage; format: in vivo
Source text: […]. […] This symptom of hair loss is observed, dose-dependently, with all doses. Clinical pathology is limited to minor disturbances.

[3] = Pharmacokinetics, single dose administration; format: in vivo; settings: plasma; for concentration at 1 h: po, microsuspension in oil, read-out: Plasma level one hour after oral administration
Protocol: Single dose administration: Compound 15 is administered orally as a microsuspension in oil. When measured one hour after oral administration, plasma levels are 480 ng/ml with 20 mg/kg and 2755 ng/ml with 100 mg/kg. There is a dose proportional increase in plasma levels of compound 15 within this dose range.

[4] = Pharmacokinetics, daily oral gavage for 14 days in mice; settings: mouse, in vivo; for AUC / Cmax: oral
Protocol: Daily administration of compound 15 by oral gavage for 14 days in mice: Compound 15 is administered daily by oral gavage as a microsuspension in oil in doses of 30 to 400 mg/kg/day for 14 days in mice.

[5] = tested on: myeloperoxidase (MPO) activity; experiment: Semi chronic inflammation of mouse ears, MPO activity; format: in vivo, C57BL/6 mice; settings: 11 d
Protocol: (§1) […] mice of the C57BL/6 strain are used. Inflammation is induced on mouse ears with either AtRA, 9-cis RA or TPA by topical application. Inflammation is measured objectively by determination of the activity of myeloperoxidase (MPO) being directly correlated to the infiltration of polymorphonuclear white blood cells and by the determination of mRNA expression of c-jun, a protein implicated in the AP-1 transduction pathway according to known methods, see e.g. P. L. Stanley et al., Skin Pharmacol. 4, 262-271 (1991) (MPO assay), N. Basset-Sequin et al., J. Invest. Dermatol. 94, 418-422 (1990), F. J. Rauscher et al., Cell 52, 471-480 […], P. Sassone-Corn et al., Nature 326, 507-510 (1987), and M. Pfahl, Endocr. Rev. 14, 651-658, 1993, which are incorporated by reference regarding the experimental method.
In the “acute inflammation” test, mice are treated topically (epicutaneously), orally or intraperitoneally, daily for 4 days. In the “semi chronic inflammation” test, mice are treated topically according to the schedules given below. For each experiment, a group of at least 4 mice of both sexes are used in the defined condition, regarding placebo, vehicle control, compound, topical formulation, oral formulation, dosage and concentration. The topical vehicle consists of ethanol/PEG 400/water (3:1:1).
(§2) The anti-inflammatory effect of topical RXR antagonists is tested by determination of myeloperoxidase activity in % of vehicle controls. The effect of the RXR antagonist compound 15 is also compared with the well known anti-inflammatory effect of the two corticosteroids, clobetasol dipropionate and betamethasone propionate. For induction of inflammation, AtRA and TPA are applied topically to the skin and the administration of the test compounds, the RXR antagonist compound 15 and the two corticosteroids are given in the following order, according to the schedule, described in: Skin Pharmacol 1991; 4 (4): 262-271, Stanley P L. et.al.: RA or TPA is administered on days 0, 2, 4, 7 and 9, compound 15 or corticosteroids are administered twice daily on day 7, day 8 and day 9 and once on day 10 in the morning. The mice are sacrificed on day 10 in the afternoon.

[6] = tested on: c-Jun mRNA expression; experiment: Semi chronic inflammation of mouse ears, c-Jun mRNA (northern blot); format: in vivo, C57BL/6 mice; settings: TPA 0.005% + test compound 0.05%
Protocol: as §1, §2
In the same experiment, the expression of c-Jun mRNA is determined by northern blot and expressed in percent of the vehicle controls.

[7] = tested on: skin inflammation induced by Candidin or UV-B; experiment: Clinical phase I trial, skin inflammation induced by candidin or UV-B irradiation; format: in vivo, human
Protocol: Four healthy volunteers participate. Inclusion criteria are: Age above 18 years, male or female. They are informed, with written letter of consent. Exclusion criteria are: Preexistant dermatological diseases, known allergy to test agents.
Inflammation inducing agents: Candidin is administered intradermally (see also D. Poffet, Comparaison entre le pouvoir vaso-constricteur d'un corticoide topique et l'inhibition de la dermite à la candidine après intradermorèaction (IDR). Thèse, Universitè de Genève, 1984). UV-B rays are administered by a UV-B lamp.
Inflammation is measured quantitatively. The area of the inflamed skin is measured in cm^2. The thickness of the skin is monitored by Ultrasound at 20 MHz. Erythema is measured by colorimetric determination employing a Minolta CR 20. […]
All determinations are recorded on a scale from 0 to 4: • 0=no reduction • 1=slight reduction (10 to 20%) • 2=moderate reduction (21 to 40%) • 3=marked reduction (41 to 70%) • 4=very marked reduction (71 to 100%) • Compared to vehicle control.

[8] = tested on: normal mice; experiment: 2-weeks toxicity study in normal mice, intraperitoneal; settings: daily i.p.

CC1=C(/C=C/C2=C(/C=C/C(C)=C/C(=O)O)CCCCC2)C(C)(C)CCC1 [Compound 1, (2E,4E)-3-methyl-5-[2-[(E)-2-(2,6,6-trimethyl-1-cyclohexen-1-yl)ethenyl]-1-cyclohepten-1-yl]-2,4-pentadienoic acid]
Lipid profile (triglycerides, HDL-, LDL-cholesterol) ([1]; all treated groups): tendency to a decrease in triglycerides, an increase in HDL-cholesterol and a decrease in LDL-cholesterol
Signs or symptoms of the hypervitaminosis A syndrome ([1]; all treated groups): no signs or symptoms of the hypervitaminosis A syndrome
Tolerability, oral ([1]; daily oral gavage, 2 weeks, up to 400 mg/kg/day): very well tolerated
Tolerability, intraperitoneal ([1]; intraperitoneally, 200 mg/kg/day): well tolerated
Body weight, intraperitoneal ([1]; intraperitoneally, 400 mg/kg/day): retarded body weight increase

CCCCOc1c(\C(C)=C/C=C/C(C)=C/C(=O)O)cc(C(C)(C)C)cc1C(C)(C)C [Compound 15, (2E,4E,6Z)-7-[2-butoxy-3,5-bis(1,1-dimethylethyl)phenyl]-3-methyl-2,4,6-octatrienoic acid]
Haematology and clinical chemistry ([2]; 4 weeks oral gavage): No abnormalities in haematology, no abnormalities in clinical chemistry
Histopathology ([2]; 4 weeks oral gavage): only some changes in the 500/750 mg/kg dose group
Transaminases, triglycerides and cholesterol ([2]; 4 weeks oral gavage): No increase in transaminases, triglycerides, and cholesterol
Tolerability, oral ([2]; daily doses of 50, 250, 500, eventually 750 mg/kg, 4 weeks): well tolerated with the exception of patchy alopecia
concentration at 1 h ([3]; single dose 20 mg/kg): 480 ng/mL
concentration at 1 h ([3]; single dose 100 mg/kg): 2760 ng/mL
bioavailability ([3]; at the mentioned low doses, intravenous versus oral PK data): 40%
AUC ([4]; 30 mg/kg): 13200 ng·h/mL
Cmax ([4]; 30 mg/kg): 4440 ng/mL
AUC ([4]; 100 mg/kg): 25700 ng·h/mL
Cmax ([4]; 100 mg/kg): 8920 ng/mL
Tmax ([4]; oral gavage 30 to 400 mg/kg/day, 14 days): 0.5 to 2 h
MPO activity (% vehicle treated mice) ([5]; At RA 0.05% + test compound 0.05% topical): 184 ± 72 % vehicle treated mice
MPO activity (% vehicle treated mice) ([5]; TPA 0.005% + test compound 0.05% topical): 345 ± 81 % vehicle treated mice
c-Jun mRNA expression (% of vehicle treated mice) [6]: 88 % of vehicle treated mice
Reduction of the inflammatory reaction compared to vehicle control ([7]; 4 healthy volunteers, topical, candidin or UV-B induced): very marked
Anti-inflammatory effect compared with corticosteroids or macrolides ([7]; topical lotion 1%): even superior to that of corticosteroids or macrolides
Signs or symptoms of hypervitaminosis A [8]: no signs or symptoms of hypervitaminosis A on skin, mucous membranes or bones with the exception of hair loss
Tolerability, intraperitoneal ([8]; doses up to 400 mg/kg): well tolerated
